Earlier results, collected in US12478643B2, “Compositions and methods for the prevention or treatment of rheumatoid arthritis” (Rhode Island Hospital, priority 2021, dated 2025).
Where two headings read alike, the source gives them in different places.

Tests used:
SHIP1 [1] = target: T1, SHIP1 (Homo sapiens, UniProt Q92835); details: at 100 μM; cited from earlier work
T1 sequence (Q92835 1-1189): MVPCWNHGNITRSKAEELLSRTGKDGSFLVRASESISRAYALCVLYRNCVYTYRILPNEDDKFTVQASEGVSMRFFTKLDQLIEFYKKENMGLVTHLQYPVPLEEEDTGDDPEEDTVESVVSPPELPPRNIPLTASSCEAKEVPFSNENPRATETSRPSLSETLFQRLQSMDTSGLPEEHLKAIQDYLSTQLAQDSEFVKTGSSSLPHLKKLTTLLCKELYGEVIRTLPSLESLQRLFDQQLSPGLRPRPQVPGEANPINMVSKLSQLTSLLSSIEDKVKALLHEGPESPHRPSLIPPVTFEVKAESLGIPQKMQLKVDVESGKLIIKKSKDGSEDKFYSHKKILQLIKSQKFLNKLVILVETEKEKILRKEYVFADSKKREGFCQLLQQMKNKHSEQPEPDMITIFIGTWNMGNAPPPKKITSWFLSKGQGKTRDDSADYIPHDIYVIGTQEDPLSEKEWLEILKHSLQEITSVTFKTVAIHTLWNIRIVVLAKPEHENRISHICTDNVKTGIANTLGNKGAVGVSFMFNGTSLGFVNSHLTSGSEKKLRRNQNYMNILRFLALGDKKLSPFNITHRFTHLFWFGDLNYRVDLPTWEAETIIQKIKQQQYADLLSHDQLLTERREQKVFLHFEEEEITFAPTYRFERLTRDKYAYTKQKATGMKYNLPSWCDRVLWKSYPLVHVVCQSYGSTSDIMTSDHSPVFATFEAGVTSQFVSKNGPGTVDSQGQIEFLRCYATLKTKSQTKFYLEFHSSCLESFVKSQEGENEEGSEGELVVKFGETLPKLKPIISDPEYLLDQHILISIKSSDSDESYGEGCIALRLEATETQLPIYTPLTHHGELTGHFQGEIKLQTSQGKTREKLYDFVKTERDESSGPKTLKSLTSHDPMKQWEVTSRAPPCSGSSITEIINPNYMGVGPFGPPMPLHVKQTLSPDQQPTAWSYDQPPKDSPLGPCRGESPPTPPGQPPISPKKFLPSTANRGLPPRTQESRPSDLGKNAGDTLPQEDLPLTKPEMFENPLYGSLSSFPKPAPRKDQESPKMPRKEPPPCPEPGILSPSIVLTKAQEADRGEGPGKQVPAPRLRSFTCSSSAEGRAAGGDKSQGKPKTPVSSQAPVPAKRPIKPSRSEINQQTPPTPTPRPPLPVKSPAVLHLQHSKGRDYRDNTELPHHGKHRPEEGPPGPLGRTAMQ

SHIP2 = target: T2, SHIP2 (Homo sapiens, UniProt O15357); details: at 100 μM; cited from earlier work
T2 sequence (O15357 1-1258): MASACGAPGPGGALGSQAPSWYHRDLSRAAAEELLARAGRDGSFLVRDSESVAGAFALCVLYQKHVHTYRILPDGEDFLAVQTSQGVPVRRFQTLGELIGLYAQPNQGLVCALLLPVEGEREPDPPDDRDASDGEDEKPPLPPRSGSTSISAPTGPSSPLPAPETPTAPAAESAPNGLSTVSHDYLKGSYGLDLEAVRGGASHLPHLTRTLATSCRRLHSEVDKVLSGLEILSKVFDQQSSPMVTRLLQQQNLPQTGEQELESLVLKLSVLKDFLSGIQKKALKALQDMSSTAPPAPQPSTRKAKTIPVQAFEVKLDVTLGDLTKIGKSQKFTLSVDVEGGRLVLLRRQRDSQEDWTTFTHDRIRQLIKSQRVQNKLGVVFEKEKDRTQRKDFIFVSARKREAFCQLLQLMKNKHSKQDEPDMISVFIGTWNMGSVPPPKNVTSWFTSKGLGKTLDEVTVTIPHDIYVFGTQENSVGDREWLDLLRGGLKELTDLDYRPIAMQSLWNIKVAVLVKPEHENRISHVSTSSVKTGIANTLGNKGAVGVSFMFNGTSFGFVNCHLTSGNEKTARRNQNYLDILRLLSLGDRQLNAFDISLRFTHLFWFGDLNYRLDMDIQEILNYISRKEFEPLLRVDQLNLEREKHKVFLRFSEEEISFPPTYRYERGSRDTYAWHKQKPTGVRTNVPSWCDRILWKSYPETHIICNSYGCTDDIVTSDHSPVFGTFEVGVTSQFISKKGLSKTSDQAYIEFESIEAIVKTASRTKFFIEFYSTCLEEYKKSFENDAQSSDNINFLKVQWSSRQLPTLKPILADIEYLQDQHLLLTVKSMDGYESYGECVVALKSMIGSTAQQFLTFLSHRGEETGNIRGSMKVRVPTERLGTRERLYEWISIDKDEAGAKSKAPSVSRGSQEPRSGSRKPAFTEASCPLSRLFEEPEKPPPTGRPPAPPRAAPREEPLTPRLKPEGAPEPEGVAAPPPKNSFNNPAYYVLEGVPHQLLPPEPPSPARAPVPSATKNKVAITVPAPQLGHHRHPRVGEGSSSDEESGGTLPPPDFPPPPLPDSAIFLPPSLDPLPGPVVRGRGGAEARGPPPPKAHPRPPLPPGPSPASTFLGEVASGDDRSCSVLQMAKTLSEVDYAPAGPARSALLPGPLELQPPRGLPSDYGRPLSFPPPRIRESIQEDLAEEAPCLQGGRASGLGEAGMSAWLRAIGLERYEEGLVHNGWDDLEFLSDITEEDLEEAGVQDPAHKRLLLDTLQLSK

SHIP1 [2] = target: T1, SHIP1
[3] = Table 1; read-out: IC50 SHIP1; cited from earlier work

SMILES | inhibition of SHIP1 activity (SHIP1 [1]) | inhibition of SHIP2 (SHIP2) | IC50 (SHIP1 [2]; [3]) | also measured
O[C@H](c1cc(C2C3CC4CC(C3)CC2C4)nc2c(Cl)cc(Cl)cc12)[C@@H]1CCCCN1 (some centres unmarked) [Compound 27] | completely inhibited | 90% | – | –
CC12CCCC1C1CCC3CC(N)CCC3(C)C1CC2 (centres unmarked) [Compound K185] | – | – | 18 µM | –
CC12CCCC1C1CCC3CC(N)CCC3(C)C1CC2 (centres unmarked) [Compound K118] | – | – | – | IC50 (SHIP1 [2]; read-out: IC50 SHIP1; Table 1; cited from earlier work): 16 µM
O[C@H](c1cc(-c2ccccc2)nc2c1ccc1ccccc12)[C@@H]1CCCCN1 [Compound 26] | completely inhibited | approximately 60% | – | –
CC[C@H]1CC[C@H]2[C@@H]3C[C@@H](O)[C@@]4(O)C[C@H](N)CC[C@]4(C)[C@H]3CC[C@]12C [Compound K116] | – | – | 1.5 to 6 µM | –
C[C@H](NC(=O)c1sccc1OCc1ccc(Cl)cc1)c1ccccc1 [AS194490] | – | – | 13 µM | –
CC12CCCC1C1CCC3CC(N)C(N)CC3(C)C1CC2 (centres unmarked) [Compound K161] | – | – | 6 µM | –
CSc1ccc2c(c1)c(CCN)c(C)n2Cc1ccccc1Cl [Compound 28] | approximately 70% | 50% | – | –
